Like-named read-outs stand apart in the source and are kept apart here. One block for each molecule: values may come before it.
Experiments:
[1] = In-vitro liver microsomal stability, rat; format: in vitro ADME; details: SD rat liver microsomes 0.5 mg/mL, 1 µM, NADPH 1 mM, 37 °C
Experimental: (§1) Method: The metabolic stability of test substances was evaluated by using human, dog, and SD rat liver microsomes. The test substances were incubated with liver microsomes from different species and NADPH in a water bath at 37 °C. In the incubation system, the final concentration of the test or control sample was 1 µM, the final concentration of liver microsomes was 0.5 mg/mL, the final concentration of NADPH was 1 mM, and the final concentration of MgCl2 was 3 mM. At designated time points (5 min, 10 min, 20 min, 30 min, and 60 min), the reaction was stopped by adding a cold acetonitrile solution containing tolbutamide (at a concentration of 200 ng/mL) as an internal standard. For the 0-min sample, the stop solution was added before the addition of the NADPH working solution. Testosterone and dextromethorphan were used as positive control samples in the same conditions to assess the stability and reliability of the system. After sample pretreatment, semiquantitative analysis was performed using the LC-MS/MS method. The retention times of the analytes and internal standard, the acquisition of chromatograms and the integration of chromatograms were processed using software Analyst (AB Sciex, Framingham, Massachusetts, USA). The remaining percentage of the test samples after 60 min of incubation was calculated, and the test results are shown in Table 3. Table 3. Test data for the compounds of the present disclosure in human, dog, and rat liver microsomes

HCT116 cells = assay: Antagonistic effect assay against HCT116 cell proliferation (CellTitle-Glo); format: cell-based; details: Homo sapiens, HCT-116, 72 h treatment, 0.01-10.00 µM, read-out: Antiproliferative IC50
Experimental: Frozen HCT116 cells were rapidly transferred from liquid nitrogen to a 37 °C water bath and rapidly shaken for thawing. The cell suspension was transferred to a 15 mL centrifuge tube and centrifuged at 1500 rpm for 5 min, and the supernatant was discarded. The cell pellet was resuspended in RPMI-1640 complete medium (containing 10% fetal bovine serum and 1% penicillin/streptomycin) and transferred to a cell culture dish containing 10 mL of medium. The cells were cultured in an incubator at 37 °C/5% CO2. The cells were passaged after adhesion to the wall.
HCT116 cells in the logarithmic growth phase and in good condition were taken, digested with a trypsin solution, resuspended in a certain amount of RPMI-1640 complete medium to form a single-cell suspension, counted on a cell counting plate, and seeded into a 96-well white plate at a density of 800 cells/well. The plate was left to stand for 5 min and then incubated in an incubator at 37 °C/5% CO2 overnight. The next day, the cells were treated with the compound at different concentrations, and the control group was treated with DMSO at the corresponding concentration. The compound, dissolved in DMSO, was diluted in RPMI-1640 complete medium at a ratio of 1:1000 to obtain final concentrations of 10.00 µM, 3.33 µM, 1.11 µM, 0.37 µM, 0.12 µM, 0.04 µM, and 0.01 µM. Each group was set up with 3 replicate wells, and 100 µL of the treatment solution was added to each well. The plate was incubated in an incubator at 37 °C/5% CO2 for 72 h.
After 72 h of treatment, the CellTitle-Glo assay was performed. 100 µL of CellTitle-Glo solution was added to each well of the control and treatment groups. The plate was mixed on an oscillator for 2 min to induce cell lysis. The 96-well plate was incubated at room temperature for 10 min to stabilize the luminescence signal value. The luminescence signal was measured using a microplate reader. The DMSO-treated cell group was used as the control group, and 50% inhibitory concentration (IC50) was calculated according to the median effect equation as follows: [formula]
The IC50 values of the compounds were calculated using GraphPad Prism nonlinear fitting equation. Table 2. Results for the inhibitory effect of the compounds of the present disclosure on HCT116 cell proliferation

[2] = In-vitro liver microsomal stability, dog; format: in vitro ADME; details: dog liver microsomes 0.5 mg/mL, 1 µM, NADPH 1 mM, 37 °C
Experimental: as §1

[3] = Permeability and transporter substrate evaluation, Caco-2 monolayer; format: in vitro ADME; details: human, Caco-2, Table 4 experimental system, Caco-2, 2.00 µM
Experimental: (§2) Cell: Caco-2 cells Instrument: water purification equipment, ELGA LabWate; biosafety cabinet, Nuaire; thermostatic CO2 incubator, Thermo; microplate reader, PerkinElmer; LC-MS/MS, AB SCIEX. Method: The purpose of this study was to determine the two-way permeability of the compounds and evaluate whether they are effluxed and transported by P-glycoprotein (P-gp) using a Caco-2 monolayer cell model. In the experiment, Caco-2 cells were seeded into a 96-well cell plate and cultured for 24 consecutive days for the transport experiment. The compounds were administered bidirectionally at a concentration of 2.00 µM, with or without verapamil. After 120 min of incubation, the samples at the apical end A and the basal end B were collected. The content of the test samples in each sample was measured using the liquid chromatography-tandem mass spectrometry (LC-MS/MS) method. The apparent permeability coefficient and the efflux rate were calculated. Two experimental systems were used successively in this part, with the reference compound (PF-07104091) included. Table 4. Permeability test results

P-glycoprotein (P-gp) = assay: as above; format: in vitro ADME; details: human, Caco-2, Table 4 experimental system, Caco-2, 2.00 µM
Experimental: as §2

CDK1/Cyclin B = target: T1, CDK1/Cyclin B (Homo sapiens, UniProt P06493); assay: CDK1 kinase activity assay (TR-FRET); format: biochemical
T1 construct: purchased Invitrogen PR4768C
T1 sequence (P06493 whole entry): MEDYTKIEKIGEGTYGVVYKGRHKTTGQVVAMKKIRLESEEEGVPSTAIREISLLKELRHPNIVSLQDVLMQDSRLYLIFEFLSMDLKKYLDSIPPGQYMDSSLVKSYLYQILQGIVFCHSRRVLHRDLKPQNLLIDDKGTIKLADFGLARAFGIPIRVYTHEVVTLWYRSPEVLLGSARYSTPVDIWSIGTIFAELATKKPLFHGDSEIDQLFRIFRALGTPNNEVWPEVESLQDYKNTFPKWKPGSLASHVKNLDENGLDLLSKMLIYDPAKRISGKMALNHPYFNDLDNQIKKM
T1 sequence (P14635 whole entry partner): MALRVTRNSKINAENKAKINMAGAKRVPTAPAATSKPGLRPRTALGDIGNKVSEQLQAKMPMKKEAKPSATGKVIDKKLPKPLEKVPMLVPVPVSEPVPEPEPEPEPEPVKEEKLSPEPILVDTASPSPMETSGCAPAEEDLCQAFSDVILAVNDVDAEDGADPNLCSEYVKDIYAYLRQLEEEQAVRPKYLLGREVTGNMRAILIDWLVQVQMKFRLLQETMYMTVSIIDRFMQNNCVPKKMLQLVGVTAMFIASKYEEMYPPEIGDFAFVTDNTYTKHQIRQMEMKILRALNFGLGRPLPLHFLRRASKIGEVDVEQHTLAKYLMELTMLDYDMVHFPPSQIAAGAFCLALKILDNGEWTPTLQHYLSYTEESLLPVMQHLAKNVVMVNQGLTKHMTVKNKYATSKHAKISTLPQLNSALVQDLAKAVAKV
Experimental: (§3) Compounds were dissolved in DMSO and serially diluted 3-fold to generate 11 concentrations. 100 nL of each compound was added to 384-well plates, followed by the addition of 5 µL of 2× CDK2/Cyclin E1 or CDK1/Cyclin B enzyme mixed solution. 5 µL of buffer (50 mM Hepes (pH 7.5), 10 mM MgCl2, 1 mM EDTA, 0.01% Brij-35, 2 mM DTT (prepared freshly)) was added to the complete inhibition control wells. The plates were centrifuged at 1000 rpm for 30 s and incubated at 23 °C for 15 min. Then, 5 µL of 2× MLight-MBP peptide (containing 10 µM ATP) was added to each well of each assay plate. The plates were centrifuged again at 1000 rpm for 30 s and incubated at 23 °C for 90 min.
(§4) After the incubation was completed, the reaction was stopped with a detection buffer containing 15 mM EDTA and 2 nM Eu-anti-P-MBP antibody. After centrifugation at 1000 rpm for about 1 min, the plates were incubated at 23 °C for 60 min and read on Perkin Elmer Envision.
(§5) The IC50 values of the compounds were calculated using GraphPad Prism nonlinear fitting equation. Table 1. Kinase activity assay

CDK2/Cyclin E1 = target: T2, CDK2/Cyclin E1 (Homo sapiens, UniProt P24941); assay: CDK2 kinase antagonistic activity assay (TR-FRET); format: biochemical; details: TR-FRET; peptide mix containing 10 µM ATP; 90 min at 23 °C; read-out: CDK2/Cyclin E1 IC50
T2 construct: purchased Invitrogen PV6296
Experimental: as §3
as §4, with “Envision. The TR-FRET ratio (value at 665 nm/value at 615 nm) was automatically calculated by Envision.” for “Envision.”
as §5

[4] = In-vitro liver microsomal stability, human; format: in vitro ADME; details: human liver microsomes 0.5 mg/mL, 1 µM, NADPH 1 mM, 37 °C
Experimental: as §1

[5] = TR-FRET, peptide mix containing 10 µM ATP, 90 min at 23 °C, read-out: CDK1/Cyclin B1 IC50

Compound: CC(C)NC(=O)O[C@@H]1CC[C@H](c2cc(Nc3ccc(N4CCN(C)CC4)cc3)n[nH]2)C1 [Compound 9]
Remaining amount% at 60 min Rat [1]: 27.7%
IC50 (HCT116 cells): 2620 nM
Remaining amount% at 60 min Dog [2]: 7.34%
Papp A→B at 120 min, 2 µM [3]: 0.52 ×10⁻⁶ cm/s
Papp B→A at 120 min, 2 µM [3]: 43.8 ×10⁻⁶ cm/s
efflux ratio at 120 min, 2 µM (P-glycoprotein (P-gp)): 84.2
IC50 (CDK1/Cyclin B; [5]): 138 nM
IC50 (CDK2/Cyclin E1): 4.38 nM
Remaining amount% at 60 min Human [4]: 93.2%

Compound: COCc1cc(C(=O)Nc2cc([C@H]3CC[C@@H](OC(=O)NCC=C(F)F)C3)[nH]n2)n(C)n1 [Compound 3]
Remaining amount% at 60 min Rat [1]: 74.6%
IC50 (HCT116 cells): 2090 nM
Remaining amount% at 60 min Dog [2]: 86.7%
Papp A→B at 120 min, 2 µM [3]: 0.218 ×10⁻⁶ cm/s
Papp B→A at 120 min, 2 µM [3]: 32.8 ×10⁻⁶ cm/s
efflux ratio at 120 min, 2 µM (P-glycoprotein (P-gp)): 150
IC50 (CDK1/Cyclin B; [5]): 78.2 nM
IC50 (CDK2/Cyclin E1): 1.22 nM
Remaining amount% at 60 min Human [4]: 90.9%

Compound: COCc1cc(C(=O)Nc2cc([C@H]3CC[C@@H](OC(=O)NC(C)C#N)C3)[nH]n2)n(C)n1 (stereo partly drawn) [Compound 1]
Remaining amount% at 60 min Rat [1]: 85.0%
IC50 (HCT116 cells): 3660 nM
Remaining amount% at 60 min Dog [2]: 92.0%
Papp A→B at 120 min, 2 µM [3]: < 0.48 ×10⁻⁶ cm/s
Papp B→A at 120 min, 2 µM [3]: 19.3 ×10⁻⁶ cm/s
efflux ratio at 120 min, 2 µM (P-glycoprotein (P-gp)): > 40.2
IC50 (CDK1/Cyclin B; [5]): 78.2 nM
IC50 (CDK2/Cyclin E1): 2.24 nM
Remaining amount% at 60 min Human [4]: 80.3%

Remaining amount% at 60 min Rat [1]: 81.2%
IC50 (HCT116 cells): 3010 nM
Remaining amount% at 60 min Dog [2]: 96.7%
IC50 (CDK1/Cyclin B; [5]): 54.2 nM
IC50 (CDK2/Cyclin E1): 9.32 nM
Remaining amount% at 60 min Human [4]: 91.3%
Compound: Cn1nc(CS(C)(=O)=O)cc1C(=O)Nc1cc([C@@H]2C[C@H](OC(=O)N3CCC3(C)C)CO2)[nH]n1 [Compound 27]

Compound: COCc1cc(C(=O)Nc2cc([C@H]3CC[C@@H](OC(=O)N(C)C4CCC(=C(F)F)CC4)C3)[nH]n2)n(C)n1 (stereo partly drawn) [Compound 2]
Remaining amount% at 60 min Rat [1]: 3.87%
IC50 (HCT116 cells): 2470 nM
Remaining amount% at 60 min Dog [2]: 12.7%
Papp A→B at 120 min, 2 µM [3]: 0.218 ×10⁻⁶ cm/s
Papp B→A at 120 min, 2 µM [3]: 43.4 ×10⁻⁶ cm/s
efflux ratio at 120 min, 2 µM (P-glycoprotein (P-gp)): 199
IC50 (CDK1/Cyclin B; [5]): 42.5 nM
IC50 (CDK2/Cyclin E1): 5.15 nM
Remaining amount% at 60 min Human [4]: 5.38%

Compound: C#CC(C)NC(=O)O[C@@H]1CC[C@H](c2cc(NC(=O)c3cc(COC)nn3C)n[nH]2)C1 (stereo partly drawn) [Compound 4]
Remaining amount% at 60 min Rat [1]: 77.9%
IC50 (HCT116 cells): 2340 nM
Remaining amount% at 60 min Dog [2]: 77.9%
Papp A→B at 120 min, 2 µM [3]: 0.0791 ×10⁻⁶ cm/s
Papp B→A at 120 min, 2 µM [3]: 30.8 ×10⁻⁶ cm/s
efflux ratio at 120 min, 2 µM (P-glycoprotein (P-gp)): 390
IC50 (CDK1/Cyclin B; [5]): 460 nM
IC50 (CDK2/Cyclin E1): 2.58 nM
Remaining amount% at 60 min Human [4]: 93.5%

Compound: CC(C)NC(=O)O[C@@H]1CC[C@H](c2cc(NC(=O)c3cc(CS(C)(=O)=O)nn3C)n[nH]2)C1 [Compound 7]
Remaining amount% at 60 min Rat [1]: 101%
IC50 (HCT116 cells): 2250 nM
Remaining amount% at 60 min Dog [2]: 101%
Papp A→B at 120 min, 2 µM [3]: < 0.26 ×10⁻⁶ cm/s
Papp B→A at 120 min, 2 µM [3]: 14.4 ×10⁻⁶ cm/s
efflux ratio at 120 min, 2 µM (P-glycoprotein (P-gp)): > 55.4
IC50 (CDK1/Cyclin B; [5]): 90 nM
IC50 (CDK2/Cyclin E1): 0.64 nM
Remaining amount% at 60 min Human [4]: 93.2%

Compound: COCc1cc(C(=O)Nc2cc([C@H]3CC[C@@H](OC(=O)NC45CC6CC(CC(C6)C4)C5)C3)[nH]n2)n(C)n1 [Compound 6]
Remaining amount% at 60 min Rat [1]: 1.80%
IC50 (HCT116 cells): 2640 nM
Remaining amount% at 60 min Dog [2]: 30.3%
Papp A→B at 120 min, 2 µM [3]: 0.54 ×10⁻⁶ cm/s
Papp B→A at 120 min, 2 µM [3]: 26.3 ×10⁻⁶ cm/s
efflux ratio at 120 min, 2 µM (P-glycoprotein (P-gp)): 48.7
IC50 (CDK1/Cyclin B): 78.4 nM
IC50 (CDK2/Cyclin E1): 0.95 nM
Remaining amount% at 60 min Human [4]: 11.0%
